Where two headings read alike, the source gives them in different places.
Key:
H. contortus xL3s = experiment: H. contortus xL3 motility dose-response assay; format: cell-based, Haemonchus contortus; conditions: for IC50: read-out: Worm motility IC50 ± SD, H. contortus xL3s; for fold increased activity compared to UMW-9729, H. contortus larvae: ratio of xL3 motility IC50 to parent UMW-9729
Description: Immediately prior to use in assays, H. contortus L3s were exsheathed via exposure to 0.15 % (v/v) sodium hypochlorite for 20 min at 38 °C ([Preston et al., 2015]), achieving an exsheathment rate of 90 %. The larvae were then immediately washed five times with 50 mL of sterile physiological saline (pH 7.0) by centrifugation at 2000×g (5 min) and resuspended (at a concentration of 300 xL3s per 50 μL) in sterile (autoclaved) lysogeny broth (LB; cf. [Bertani, 1951]; [Taki et al., 2021b]), supplemented with final concentrations of 100 IU/mL of penicillin, 100 μg/mL of streptomycin and 0.25 μg/mL of amphotericin B (Fungizone®, cat. No. 15240-062, Gibco, Thermo Fisher Scientific, Waltham, MA, USA); this supplemented LB was designated LB*.
The dose-response assay for H. contortus followed a well-established protocol ([Taki et al., 2021b]); it was employed to evaluate the potency of hit compounds against this nematode. Test compounds were assessed individually for an effect on the motility of xL3s (10-point, 2-fold serial dilution in LB*, 40 μM–[…]). […] A solution of LB* was used as a negative control. The test compounds and positive control compounds (monepantel and moxidectin) were arrayed in triplicate across individual flat-bottom 96-well microplates, with six wells on each plate containing the negative control. Added to each well were 300 xL3s of H. contortus in 50 μL of LB* to give a final volume of 100 μL. Plates were then placed in a CO2 incubator (10 % (v/v) CO2, 38 °C, >90 % humidity; Forma, model no. 311, Thermo Fisher Scientific, USA). […] Over a period of 15 min, disturbance of an infrared beam in individual wells was recorded as an ‘activity count’. Raw ‘activity counts’ for individual wells were normalised to the negative-controls. The compound concentrations were log10-transformed and fitted using a variable slope four-parameter equation, using the ordinary least squares fit model, employing Prism (v.9.1.0 GraphPad Software, San Diego, CA, USA). Larval development was established at 168 h of incubation with compound, as described previously ([Preston et al., 2015]). The phenotypes of larvae were examined using a microscope ([Preston et al., 2015]) and recorded.

C. elegans young adults = experiment: C. elegans young adult motility dose-response assay; format: cell-based, Caenorhabditis elegans; conditions: for IC50: read-out: Worm motility IC50 ± SD, C. elegans young adults
Description: The eggs were then washed five times with 15 mL of sterile M9 buffer (centrifugation at 500×g, 2 min). […] were collected from plates and washed twice with sterile M9 buffer by centrifugation (500×g, 2 min) to remove E. coli OP50, and then resuspended to a concentration of 100 larvae per 50 μL in sterile (autoclaved) LB*. The dose-response assay for C. elegans followed a well-established protocol ([Taki et al., 2021a]) and was employed to evaluate the potency of hit compounds against this nematode. […] Two compounds, monepantel (ZolvixTM; Elanco, Australia) and moxidectin ([…], France) were used as positive controls and prepared in the same manner as the test compounds. […] The test compounds and positive control compounds were arrayed in triplicate across individual flat-bottom 96-well microplates (cat. no. 3596; Corning, Corning, NY, USA), with six wells on each plate containing the negative control. Added to each well were 100 C. elegans in 50 μL of LB* to give a final volume of 100 μL. Plates were then placed in an incubator ([…], model no. IMP180, Thermo Fisher Scientific, USA) at 20 °C for 40 h. […] Over 15 min, disturbance of an infrared beam in individual wells was recorded as an 'activity count'. Raw 'activity counts' for each well were normalised to the negative controls. The compound concentrations were log10-transformed and fitted using a variable slope four-parameter equation, using the ordinary least squares fit model, employing the program Prism (v.9.1.0 GraphPad Software, San Diego, CA, USA).

[1] = system: adult females of Haemonchus contortus; experiment: Motility of adult female H. contortus in vitro; format: cell-based; conditions: 40 μM
Description: Adult H. contortus were collected from the abomasa of sheep infected for 10 weeks, washed extensively with phosphate-buffered saline (PBS, pH 7.4) and subsequently in RPMI 1640 media supplemented with final concentrations of 2 mM L-glutamine, 100 IU/mL of penicillin, 100 μg/mL of streptomycin and 0.25 μg/mL of amphotericin B (Thermo Fisher Scientific, Scoresby, VIC, Australia; this supplemented RPMI was designated RPMI*). Female and male worms were collected and separated immediately prior to compound testing.
The activity of UMW-9729 and six derivatives (12, 14, 15, 16, 18 and 25) was assessed on adult female specimens of H. contortus in an established assay ([Taki et al., 2020]). The compound was added in triplicate to the wells of a 24-well plate (cat. no. 3524; Corning, USA) at a concentration of 40 μM in 500 μL of RPMI* (RPMI supplemented with final concentrations of 2 mM L-glutamine, 100 IU/mL of penicillin, 100 μg/mL of streptomycin and 0.25 μg/mL of amphotericin B; Thermo Fisher Scientific, Scoresby, VIC, Australia). Two positive-control compounds, monepantel and moxidectin, and a negative control containing 1 % (v/v) DMSO only, were included in triplicates on the same plate. Three adult females were added to each of the triplicate wells containing either the test compound or the controls and placed in a CO2 incubator (10 % (v/v) CO2, 40 °C, >90 % relative humidity) for 1 day. A video recording (30 s) of each well was taken at 3 h, 6 h, 12 h and 24 h during the total incubation period to assess the reduction in worm motility, which was scored as 3 (“good”), 2 (“low”), 1 (“very low”) or 0 (“no movement”; cf. [Taki et al., 2020]). For each test or control compound, the motility scores for each of the triplicate wells were calculated, normalised with reference to the negative control (100 % motility) and recorded as a percentage.

[2] = Haemonchus contortus, 90 h, xL3s, 90 h incubation (table title), three independent assays in triplicate
[3] = xL3s, 90 h incubation (table title), three independent assays in triplicate
[4] = Caenorhabditis elegans, 40 h, young adults, 40 h incubation, three independent assays in triplicate
[5] = 24 h of incubation, normalised to negative control
[6] = young adults, 40 h incubation, three independent assays in triplicate

IC50 (H. contortus xL3s; [2]) [µM] | IC50 (C. elegans young adults; [4]) [µM] | Structure (SMILES) | other results
> 40 | > 40 | C#Cc1ccc(-c2ccn[nH]2)cc1 [Compound 27, 5-(4-ethynylphenyl)-1H-pyrazole] | Worm motility IC50 ± SD, H. contortus xL3s (H. contortus xL3s; [3]): complete loss of activity
2 ± 0.1 | > 40 | Cc1ccc(C#Cc2ccc(-c3ccn[nH]3)cc2)cc1 [Compound 18] | reduction of worm motility, adult females of H. contortus [1, 5]: 15%; fold increased activity compared to UMW-9729, H. contortus larvae (H. contortus xL3s): 3 fold; Worm motility IC50 ± SD, C. elegans young adults (C. elegans young adults; [6]): inactive
 |  | Cn1nccc1-c1ccc(C#Cc2ccccc2)cc1 [Compound 25] | reduction of worm motility, adult females of H. contortus ([1]; 3 h time point): did not display a reduction in motility; reduction of worm motility, adult females of H. contortus ([1]; 6 h time point): did not display a reduction in motility; reduction of worm motility, adult females of H. contortus ([1]; 12 h time point): did not display a reduction in motility; fold increased activity compared to UMW-9729, H. contortus larvae (H. contortus xL3s): 3 fold; Maximum motility inhibition (MMI), H. contortus xL3s (H. contortus xL3s; xL3s, 90 h incubation (table title)): 73%; IC50 (H. contortus xL3s; [3]): 1.9 ± 0.14 µM; Worm motility IC50 ± SD, C. elegans young adults (C. elegans young adults; [6]): inactive; IC50 (C. elegans young adults; [6]): > 40 µM
 |  | C[Si](C)(C)C#Cc1ccc(-c2ccn[nH]2)cc1 [Compound 23] | IC50 (H. contortus xL3s; Haemonchus contortus, 90 h): > 40 µM; Worm motility IC50 ± SD, H. contortus xL3s (H. contortus xL3s; [3]): complete loss of activity; IC50 (C. elegans young adults; Caenorhabditis elegans, 40 h): > 40 µM
6.7 ± 4.2 | > 40 | N#Cc1ccc(C#Cc2ccc(-c3ccn[nH]3)cc2)cc1 [Compound 21] | 
5.1 ± 0.5 | 18 ± 11 | Cc1nc(-c2ccc(C#Cc3ccccc3)cc2)no1 [Compound 32] | 
12 | 3.7 ± 1.9 | Fc1ccccc1C#Cc1ccc(-c2ccn[nH]2)cc1 [Compound 8] | IC50 (H. contortus xL3s; [3]): 13 ± 4.5 µM
13 ± 5.7 | > 40 | Cc1cccc(C#Cc2ccc(-c3ccn[nH]3)cc2)c1 [Compound 11] | Worm motility IC50 ± SD, C. elegans young adults (C. elegans young adults; [6]): lost activity
5.2 ± 0.9 | 9 | Fc1cccc(C#Cc2ccc(-c3ccn[nH]3)cc2)c1 [Compound 14] | reduction of worm motility, adult females of H. contortus [1, 5]: 29%; IC50 (C. elegans young adults; [6]): 8 ± 1.8 µM
0.6 ± 0.2 | 0.03 ± 0.01 | C[C@](C#N)(COc1cc(C#N)ccc1C(F)(F)F)NC(=O)c1ccc(SC(F)(F)F)cc1 [Monepantel, monepantel, reference compound] | 
16 ± 4.9 | > 40 | c1ccc(CCc2ccc(-c3ccn[nH]3)cc2)cc1 [Compound 28] | 
4.8 ± 0.7 | > 40 | Clc1ccccc1C#Cc1ccc(-c2ccn[nH]2)cc1 [Compound 9] | 
18 ± 9.1 | 0.003 | CO/N=C1\C[C@]2(C[C@@H]3C[C@@H](C/C=C(\C)C[C@@H](C)/C=C/C=C4\CO[C@@H]5[C@H](O)C(C)=C[C@@H](C(=O)O3)[C@]45O)O2)O[C@H](/C(C)=C/C(C)C)[C@H]1C [Moxidectin, moxidectin, reference compound] | 
> 40 | > 40 | COc1ccccc1C#Cc1ccc(-c2ccn[nH]2)cc1 [Compound 6] | 
> 40 | > 40 | C(#Cc1cccc(-c2ccn[nH]2)c1)c1ccccc1 [Compound 26, 5-(3-(phenylethynyl)phenyl)-1H-pyrazole] | Worm motility IC50 ± SD, H. contortus xL3s (H. contortus xL3s; [3]): complete loss of activity
6.8 ± 0.1 | > 40 | C(#Cc1cccnc1)c1ccc(-c2ccn[nH]2)cc1 [Compound 16] | reduction of worm motility, adult females of H. contortus [1, 5]: 15%; Worm motility IC50 ± SD, H. contortus xL3s (H. contortus xL3s; [3]): equipotent; Worm motility IC50 ± SD, C. elegans young adults (C. elegans young adults; [6]): loss of activity
24 ± 8.5 | > 40 | C(#Cc1ccc(-c2ccn[nH]2)cn1)c1ccccc1 [Compound 24] | Worm motility IC50 ± SD, C. elegans young adults (C. elegans young adults; [6]): loss in activity
29 ± 12 | 25 ± 7 | Oc1cccc(C#Cc2ccc(-c3ccn[nH]3)cc2)c1 [Compound 17] | 
8.2 ± 1.9 | 12 ± 7 | FC(F)(F)c1cccc(C#Cc2ccc(-c3ccn[nH]3)cc2)c1 [Compound 12] | reduction of worm motility, adult females of H. contortus [1, 5]: 29%
> 40 | > 40 | FC(F)(F)Oc1cccc(C#Cc2ccc(-c3ccn[nH]3)cc2)c1 [Compound 13] | 
> 40 | > 40 | FC(F)(F)c1ccccc1C#Cc1ccc(-c2ccn[nH]2)cc1 [Compound 7] | 
3.7 ± 1.1 | > 40 | Clc1ccc(C#Cc2ccc(-c3ccn[nH]3)cc2)cc1 [Compound 20] | 
8.7 ± 2.5 | > 40 | C(#Cc1ccccn1)c1ccc(-c2ccn[nH]2)cc1 [Compound 10] | Worm motility IC50 ± SD, C. elegans young adults (C. elegans young adults; [6]): loss of compound activity
> 40 | > 40 | C(#Cc1ccc(-c2ccn[nH]2)cc1)c1ccncc1 [Compound 22] | Worm motility IC50 ± SD, H. contortus xL3s (H. contortus xL3s; [3]): inactive
> 40 | 8.2 ± 7.8 | Clc1cccc(C#Cc2ccc(-c3ccn[nH]3)cc2)c1 [Compound 15] | reduction of worm motility, adult females of H. contortus [1, 5]: 23%; Worm motility IC50 ± SD, H. contortus xL3s (H. contortus xL3s; [3]): loss of activity; fold increased activity compared to UMW-9729, C. elegans (C. elegans young adults; ratio of motility IC50 to parent UMW-9729): ~2 fold
> 40 | > 40 | COc1ccc(C#Cc2ccc(-c3ccn[nH]3)cc2)cc1 [Compound 19] | Worm motility IC50 ± SD, H. contortus xL3s (H. contortus xL3s; [3]): inactive

From publication PMC10992699, “Comparative structure activity and target exploration of 1,2-diphenylethynes in Haemonchus contortus and Caenorhabditis elegans” (International Journal for Parasitology: Drugs and Drug …, 2024)
